Experimental findings from patent US5026731A, “Pharmaceutical composition and method of treating psychoses” (Schering Corporation, priority 1990, dated 1991) are described below.

The target in one assay is T1, D-2 receptor (Bos taurus, UniProt P20288).
T1 construct: Striata were dissected on ice and membranes prepared as described earlier; from tissue; host or cells: bovine striatum (membranes; brains from a local slaughter house)
The assay can be described thus: Competitive inhibition binding assay, 3H-spiperone (D2-binding), bovine striatal membranes. The method, then: (§1) Compounds of represented by formula I may be synthesized as disclosed herein and diluted in 0.05M Tris buffer, pH 7.4, as required.
(§2) Bovine brains were obtained from a local slaughter house, on ice. […] Briefly, the striata were homogenized in 20 volumes of Tris-HCl (50 mM) buffer, pH 7.4, using a Polytron (Brinkmann) homogenizer, setting 7; membranes were washed by centrigugation (20,000×g) and resuspending in buffer, twice, and finally resuspended in assay buffer (Tris-HCl, 50 mM, pH 7.4, containing 120 mM NaCl, 5 mM KCl, […], 1 mM MgCl2). At least 3-4 different pools of membrane were processed and stored at -80° C.
(§3) For competition studies, several concentration of test drug or standard were included, ranging from 10^-4 to 10^-3. Tubes were incubated, 30 minute incubations at 37° C. were terminated by rapid filtration under vacuum, on to GF/B filters, presoaked in 0.3% polyethyleneamine (PEl), with three 5 ml washes.

For the next assay, the target named is T2, dopamine D-1 receptor (Bos taurus, UniProt Q95136).
T2 construct: Striata were dissected on ice and membranes prepared as described earlier; from tissue; host or cells: bovine striatum (membranes; brains from a local slaughter house)
T2 sequence (Q95136 whole entry): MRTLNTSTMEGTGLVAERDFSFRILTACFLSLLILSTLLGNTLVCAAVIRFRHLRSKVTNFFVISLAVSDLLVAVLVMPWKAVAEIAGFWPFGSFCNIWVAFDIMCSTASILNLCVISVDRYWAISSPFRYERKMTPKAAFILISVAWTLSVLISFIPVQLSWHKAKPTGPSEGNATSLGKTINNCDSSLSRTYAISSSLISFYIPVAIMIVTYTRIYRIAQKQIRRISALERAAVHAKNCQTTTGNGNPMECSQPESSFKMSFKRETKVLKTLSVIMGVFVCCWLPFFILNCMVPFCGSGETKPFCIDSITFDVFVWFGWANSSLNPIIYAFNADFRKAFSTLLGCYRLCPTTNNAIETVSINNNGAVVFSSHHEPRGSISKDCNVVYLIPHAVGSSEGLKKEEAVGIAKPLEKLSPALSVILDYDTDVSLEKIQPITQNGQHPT
Briefly: Competitive inhibition binding assay, 3H-Sch 23390 (D1-binding), bovine striatal membranes. The conditions noted are these: for Ki: 3H-Sch 23390 binding, bovine striatal membranes, 30 minute at 37° C., Tris-HCl pH 7.4. The method, then:
as §1, §2, §3

Setting [1] is: 3H-spiperone binding, bovine striatal membranes, 30 minute at 37° C., Tris-HCl pH 7.4.

T1 sequence (P20288 whole entry): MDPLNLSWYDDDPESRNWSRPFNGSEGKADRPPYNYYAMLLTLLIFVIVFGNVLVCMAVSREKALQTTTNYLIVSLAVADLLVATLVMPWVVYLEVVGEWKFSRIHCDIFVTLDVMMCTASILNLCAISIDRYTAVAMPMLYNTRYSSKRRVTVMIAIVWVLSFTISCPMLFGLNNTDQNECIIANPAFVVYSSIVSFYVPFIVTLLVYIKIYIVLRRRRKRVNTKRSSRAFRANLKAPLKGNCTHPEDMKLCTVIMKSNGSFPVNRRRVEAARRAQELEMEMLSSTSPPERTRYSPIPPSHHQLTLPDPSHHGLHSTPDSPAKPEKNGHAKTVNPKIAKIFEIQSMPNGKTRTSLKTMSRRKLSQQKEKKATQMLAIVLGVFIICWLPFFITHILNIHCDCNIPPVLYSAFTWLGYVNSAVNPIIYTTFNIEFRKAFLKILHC

Regarding (+) butaclamol, the Ki (usually a dissociation constant, usually derived from enzyme kinetics or from competition with a known ligand) on D-2 receptor (pH 7.4) turned out to be 1 nM. In other words, the single-digit nanomolar range.
For `CC(=O)Nc1cc(O)ccc1O` [2,5-dihydroxyacetanilide], the Ki on dopamine D-1 receptor is 1200 to 2000 nM; at D-2 receptor (setting [1]), 200000 nM. The “D1 receptor selectivity (D1 versus D2)” value on dopamine D-1 receptor (from the Ki data of Table 1, D1 vs D2) is on record as “more than 100 fold”.
`CN1CCc2cc(Cl)c(O)cc2[C@@H](c2ccccc2)C1` [Sch 23390, (R)-(+)-8-chloro-2,3,4,5-tetrahydro-3-methyl-5-phenyl-1H-3-benzazepin-7-olhemimaleate]: the Ki at dopamine D-1 receptor came to 0.8 nM; at D-2 receptor (setting [1]), 800 nM.
